According to the supplement of paper PMC10307832:

Columns and labels:
Experiment in all cases: relative viability (nuclei count vs DMSO), 5 days (fraction); higher = more cells survive
MK-8033 + Linsitinib = compound: Cn1cc(-c2cnc3ccc4ccc(CS(=O)(=O)NCc5ccccn5)cc4c(=O)c3c2)cn1 [MK-8033] + C[C@]1(O)C[C@@H](c2nc(-c3ccc4ccc(-c5ccccc5)nc4c3)c3c(N)nccn32)C1 [Linsitinib] (partner 1 µM)
Outline: (§1)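 One day after seeding in 1536-well plates, lung cancer cell lines were dosed by pin tool. Dosing was either single-drug or a fixed anchor-drug dose plus five library-drug doses (not always all listed) in √10 steps. After 5 days, nuclei were stained in one fix-and-stain step and counted on 4× images, and relative viability is the nuclei count of treated wells over that of vehicle wells, given as the median of duplicate plates.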

RU-SKI 43 + Linsitinib = compound: CC[C@@H](C)CNCC(=O)N1CCC2=C([C@@H]1COC3=CC=CC(=C3)C)C=CS2 [RU-SKI 43] + C[C@]1(O)C[C@@H](c2nc(-c3ccc4ccc(-c5ccccc5)nc4c3)c3c(N)nccn32)C1 [Linsitinib] (partner 1 µM)
Outline: as §1

Irinotecan + Olaparib = compound: CCc1c2c(nc3ccc(OC(=O)N4CCC(N5CCCCC5)CC4)cc13)-c1cc3c(c(=O)n1C2)COC(=O)[C@]3(O)CC [Irinotecan] + O=C(c1cc(Cc2n[nH]c(=O)c3ccccc23)ccc1F)N1CCN(C(=O)C2CC2)CC1 [Olaparib] (partner 8 µM)
Outline: as §1

MK-8033 + Navitoclax = compound: Cn1cc(-c2cnc3ccc4ccc(CS(=O)(=O)NCc5ccccn5)cc4c(=O)c3c2)cn1 [MK-8033] + CC1(C)CCC(c2ccc(Cl)cc2)=C(CN2CCN(c3ccc(C(=O)NS(=O)(=O)c4ccc(N[C@H](CCN5CCOCC5)CSc5ccccc5)c(S(=O)(=O)C(F)(F)F)c4)cc3)CC2)C1 [Navitoclax] (partner 0.5 µM)
Outline: as §1

UMC-11
relative viability (MK-8033 + Linsitinib; first compound 0.02 µM): 0.973 | relative viability (MK-8033 + Linsitinib; first compound 0.06325 µM): 0.739 | relative viability (MK-8033 + Linsitinib; first compound 0.2 µM): 0.974 | relative viability (MK-8033 + Linsitinib; first compound 0.6325 µM): 0.969 | relative viability (MK-8033 + Linsitinib; first compound 2 µM): 0.979 | relative viability (RU-SKI 43 + Linsitinib; first compound 0.1 µM): 1.11 | relative viability (RU-SKI 43 + Linsitinib; first compound 0.3162 µM): 1.21 | relative viability (RU-SKI 43 + Linsitinib; first compound 1 µM): 1.07 | relative viability (RU-SKI 43 + Linsitinib; first compound 3.162 µM): 1.04 | relative viability (RU-SKI 43 + Linsitinib; first compound 10 µM): 1.07 | relative viability (Irinotecan + Olaparib; first compound 0.6325 µM): 0.273 | relative viability (Irinotecan + Olaparib; first compound 2 µM): 0.206 | relative viability (Irinotecan + Olaparib; first compound 6.325 µM): 0.283 | relative viability (Irinotecan + Olaparib; first compound 20 µM): 0.226 | relative viability (MK-8033 + Navitoclax; first compound 0.02 µM): 0.306 | relative viability (MK-8033 + Navitoclax; first compound 0.06325 µM): 0.265 | relative viability (MK-8033 + Navitoclax; first compound 0.2 µM): 0.287 | relative viability (MK-8033 + Navitoclax; first compound 0.6325 µM): 0.28 | relative viability (MK-8033 + Navitoclax; first compound 2 µM): 0.332
